# Measured values as given in patent US9453050B2, “Compositions for treating glioma” (GLIA SP Z.O.O., priority 2011, dated 2016).
# B1: lactadherin shRNA: shRNA to rat lactadherin, oligonucleotides SEQ ID NO: 25 and 26, stably expressed in C6 glioma cells (nucleic acid)
# chain 1: GATCCGGATGAAAGCGGAACCGGATTCAAGAGATCCGGTTCCGCTTTCATCCTGTTTTTTGGAAA
# chain 2: AGCTTTTCCAAAAAACAGGATGAAAGCGGAACCGGATCTCTTGAATCCGGTTCCGCTTTCATCCG
# modifications: the letters are possibly those of the target site
# Experiments:
# [1] = tested on: phosphorylated FAK, Akt and ERK in microglia cells; test: Immunoblotting of phosphorylated kinases in GCM-treated microglia; format: cell-based, rat; details: pre-treatment with peptide; FIG. 6E
# Protocol: Whole cell lysates were prepared by scraping the cells into the buffer containing phosphatase and protease inhibitors (20 mM Tris HCl, pH6.8, 137 mM sodium chloride, 25 mM β-glycerophosphate, 2 mM sodium pyrophosphate, 2 mM EDTA, 1 mM sodium orthovanadate, 1% Triton X-100, 10% glycerol, 5 μg/ml leupeptin, 5 μg/ml aprotinin, 2 mM benzamidine, 0.5 mM DTT, 1 mM PMSF). The protein concentration was determined with the Bradford assay (Sigma-Aldrich, Saint Louis, Mo., USA). Protein extracts were separated on SDS-PAGE before electrophoretic transfer onto a nitrocellulose membrane (Amersham Biosciences, Germany) as described (Ellert-Miklaszewska et al. 2005; Sliwa et al. 2007). After blocking with 5% non-fat milk in TBS-T (Tris-buffered saline pH 7.6/0.15% Tween 20) the membranes were incubated with primary antibodies diluted in a blocking buffer overnight and then with relevant secondary antibodies for one hour. Antibodies recognizing phosphorylated and total forms of p38, ERK1/2, JNK, STAT1, STAT3, STATS, AKT, FAK and IκB as well as Cox-2 (all diluted 1:1000) and horseradish peroxidase-conjugated anti-rabbit IgG (diluted 1:2000) were purchased from Cell Signaling Technology (Beverly, Mass., USA); iNOS (diluted 1:2000) from BD Biosciences (Bedford, Mass., USA). Immunocomplexes were visualized by using ECL (Amersham). […]
# [2] = tested on: rat primary microglia cultures; test: Scratch assay of microglia motility; format: cell-based; details: GCM with RGD inhibitor; FIG. 6C
# Protocol: Microglia were platted on a 35 mm Petri dish at the density of 1.5×10^6 cells and after 48 hours the cultures were gently scratched using a pipette tip and microglia cells were cultured under various experimental conditions (control, 100 ng/mL LPS or G-CM). Motility of microglia cells was determined 3 hours after treatment. Migrating cells were visualized by phase-contrast microscopy.
# Using the rat lactadherin amino acid sequence, a 7-aa RGD-containing peptide (RGD) was designed as a competitive inhibitor (set forth in SEQ ID NO: 18). A scrambled sequence peptide was used as a control (SCR). Pre-incubation with the chemically synthesized 500 μM RGD peptide, but not with the SCR peptide, prevented transformation of microglia into amoeboid cells following GCM induction (amoeboid cells indicated with arrows) (FIG. 6A).
# [3] = tested on: rat primary microglia cultures; test: Phagocytosis of fluorescent beads by GCM-treated microglia; format: cell-based; details: 500 μM peptide; FIG. 6B
# Protocol: Microglia cells (1×10^5) were seeded on 24-wells plates and after 24 hours cells were transfected with 25 nM control non-targeting siRNA, and siRNA to αv or β3, or two siRNA together (ON-TARGET siRNA, Dharmacon) using 0.25 μl of DharmaFECT 3 transfection reagent in 0.5 ml culture medium. After 48 h the transfection medium was replaced by G-CM and phagocytic properties of microglia were determined as described. To estimate the silencing efficiency cells were removed from the culture plates by trypsynization and suspended in MACS buffer (PBS, 2 mM EDTA, 0.5% BSA) at final concentration 1×10^5 cells/100 μl. Cell surface expression of the integrins was analysed using primary antibodies to αv or β3 (BD Biosciences) and anti-mouse-Alexa Fluor 647 secondary antibody (Invitrogen). The fluorescent intensity of the labelled cells was analysed with FACSCalibur (Beckton Dickinson). The mean fluorescent intensity was compared with the control siRNA and expressed as the relative change to the control condition for each experimental siRNA.
# Phagocytic properties of microglia were determined by incubation of cells with 2 μm fluorescent latex beads (Sigma-Aldrich, Saint Louis, Mo., USA) for 90 min. […] The percentage of cells with none/low (<2 beads per cell), medium (≧2<10) or high (≧10 beads per cell) phagocytic activity was counted. […]
# [4] = tested on: rat primary microglia cultures; test: GCM-induced amoeboid transformation of microglia (F-actin staining); format: cell-based; details: pre-incubation with 500 μM peptide; FIG. 6A
# Protocol: Cell culture and treatment. Primary cultures of rat microglia were prepared from 1-day-old Wistar rat pups as described previously (Zawadzka and Kaminska 2003). Briefly, cells were isolated from cerebral cortices by trypsination, mechanically dissociated and plated at the density of 3×10^5 cells/cm^2 in Dulbecco's modified Eagle medium (with Glutamax and high-glucose formula 4.5 g/L, Gibco) supplemented with heat-inactivated 10% fetal bovine serum (Gibco), 100 U/mL penicillin, and 0.1 mg/mL streptomycin on poly-L-lysine coated culture 75 cm^2 flasks. Murine pEGFP-GL261 glioma cells were cultured in DMEM with 10% FBS and antibiotics (50 U/ml penicillin, 50 μg/ml streptomycin). Primary cultures of astrocytes were prepared from cerebral cortex of 2-day-old C57BL/6 newborn mice. Astrocytes were cultured in DMEM media with high glucose supplemented with 10% FBS, 100 U/ml penicillin and 100 μg/ml streptomycin. Culture medium was changed after 3 days and then twice a week. Cell cultures were maintained at 37° C. in humidified 5% CO2/95% air incubator (Heraeus, Hanau, Germany). […]
# Cells were washed with a phosphate buffer saline (PBS) and fixed with 2% paraformaldehyde at indicated time periods. […] Morphological alterations were monitored by fluorescent microscopy with excitation 450-490 nm, recorded with 20× objective. […]
# microglia cells [5] = test: Real-Time PCR of M2 phenotype markers and iNOS in microglia treated with U87-MG GCM plus peptides; format: cell-based, mouse; details: 500 μM peptide in GCM, 6 h
# Protocol: (§1) Total RNA (2 μg) isolated from microglia cultures untreated or treated for 6 h with LPS or G-CM was used as a template to generate cDNA. As endogenous control 18S (Hs99999901_s1) rRNA was applied. Gene expression quantification was performed using the Applied Biosystem TaqMan® The real time amplifications were performed in duplicates in a 20 μl reaction volume containing 2×SYBR PCR MasterMix and a set of primers designed using PRIMER EXPRESS software for the following genes: iNOS, COX-2, II1beta, TNF alpha, MMP-2, MMP-9, MMP-14, Arg1, Id1 and c-Myc. The amount of target mRNA was first normalized to the 18S RNA expression level and then to a control. Data were analysed by the Relative Quantification (^ΔΔCt) method using 7500 System SDS software (Applied Biosystems). The expression of each product was normalized to 18S rRNA and is shown as the ratio of the target gene to 18S gene expression, calculated by 2^−ΔΔCt.
# U87-MG human glioma cells were plated on 100 mm culture dishes in a total volume of 8 mL culture medium for 24 h. […]
# The expression level of genes that were previously identified as markers of the M2 microglia/macrophage phenotype (see FIG. 4.) such as: Arg1, Id1, c-Myc and MMP-14 was determined using Real-Time PCR. Likewise, the expression level of iNOS was determined to evaluate induction of an immune response. […]
# microglia cells [6] = test: qPCR of GCM-induced genes in microglia exposed to GCM of shRNA-expressing C6 glioma cells; format: cell-based, rat; details: FIG. 7B
# Protocol: as §1
# To investigate the role of identified proteins in GCM-induced activation of microglia cells, stable C6 glioma cell lines expressing shRNAs specific to osteopontin (shSPP1), or a control, negative shRNA (shNeg) were generated. Silencing efficiency was approximately 98.5% (FIGS. 7A and C). Silencing of […] inhibited GCM-induced expression c-Myc and smad7 in microglia cells (FIG. 7B). […]
molecule,measurement,setting,value
TQRGDIF [RGD peptide],"activation of phosphorylated FAK, Akt and ERK kinases by GCM",[1],abolished
same,microglia migration in a scratch assay,[2],completely blocked
same,GCM-induced phagocytosis,[3],completely blocked
same,transformation of microglia into amoeboid cells following GCM induction,[4],prevented
"DQIGFRT [SCR peptide, reference compound]",transformation of microglia into amoeboid cells following GCM induction,[4],not
DGRGDSV (SYNTHTIC PEPTIDE) [OPN inhibiting peptide],Id1 expression level (M2 marker),microglia cells [5]; FIG. 17B-C,down-regulated
same,Arg1 expression level (M2 marker),"microglia cells [5]; vs control peptide, FIG. 17A",down-regulated
B1,GCM-induced expression c-Myc and smad7 in microglia cells,microglia cells [6],inhibited
